Results on 16 compounds are retold here after patent publication US9957263B2, “Bromodomain inhibitors” (AbbVie Inc., priority 2013, dated 2018).

Test [1] relates to breast cancer cell line MX-1. The test is described as follows: MX-1 cell line proliferation assay, Method B. The following applies: Homo sapiens, MX1; MX-1 cells, 384-well, 72 hours, Cell Titer Glo; read-out: Cellular proliferation: EC50 Method B. It is filed as cell-based. Here is the method: The impact of compounds of the Examples on cancer cell proliferation was determined using the breast cancer cell line MX-1 (ATCC) in a 3-day proliferation assay and the data are reported in Table 1.
Method B: MX-1 cells were maintained in RPMI 1640 medium (Sigma) supplemented with 10% FBS at 37 C.° and an atmosphere of 5% CO2. For compound testing, MX-1 cells were plated in 384-well white with clear, flat bottom plates at a density of 750 cells/well in 25 μL of culture media and incubated at 370 overnight to allow cell adhesion and spreading. Ten point compound dilution series were prepared in DMSO via a 3-fold serial dilution from either […] or 1 μM stock and added directly to the appropriate wells of the MX-1 cell plate by an ECHO liquid handler (Labcyte). The final compound concentrations in the wells were 10, 3.25, 1, 0.25, 0.124, 0.040, 0.0124, 0.0031, 0.0015 and 0.0005 μM or 1, 0.33, 0.1, 0.025, 0.0124, 0.004, 0.0012, 0.0003, 0.00015, 0.00005 μM, depending on the concentration of the compound stock solution.
Luminescence readings from the Cell Titer Glo assay were normalized to the DMSO treated cells and analyzed using Accelrys Assay Explorer 3.3 software with sigmoidal curve fitting to obtain ECsos. The minimum significant ratio (MSR) was determined to evaluate assay reproducibility (Eastwood et al., (2006) J Biomol Screen, 11: 253-261). The overall MSR was determined to be 3.3 and a moving MSR (last six run MSR overtime) has averaged

The target of another test is BRD4 (BDII_E352-M457) (Homo sapiens (Human), UniProt O60885). In words: TR-FRET bromodomain binding assay, BRD4 second bromodomain. The following applies: His-tagged BD2, Alexa647-labeled probe 30 nM. In a few lines: (§1)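 Read-out: TR-FRET ratio after 1 h at room temperature, normalized to controls and fitted for IC50, then converted to Ki. Reaction held 8 nM His-tagged domain, 1 nM Eu-anti-His antibody, Alexa647 probe (BDI 100 nM; BDII 30 nM) and test compound in 2% DMSO.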

The target in another test is BRD4 (BDI_K57-E168) (Homo sapiens (Human), UniProt O60885). The test is described as follows: TR-FRET bromodomain binding assay, BRD4 first bromodomain. As to conditions: His-tagged BD1, Alexa647-labeled probe 100 nM. In a few lines:
as §1

On to `CCNC(=O)c1cc2c(-c3ccc(C(=O)N(CC#N)C(C)Cc4ccccc4)cc3Oc3c(C)cccc3C)cn(C)c(=O)c2[nH]1` (stereo not shown) [Example 166, 4-{4-[(cyanomethyl)(1-phenylpropan-2-yl)carbamoyl]-2-(2,6-dimethylphenoxy)phenyl}-N-ethyl-6-methyl-7-oxo-6,7-dihydro-1H-pyrrolo[2,3-c]pyridine-2-carboxamide], for which the EC50 in test [1] was found to be 3030 nM. In addition, the values for the Ki at BRD4 (BDII_E352-M457) and on BRD4 (BDI_K57-E168) were 17.5 nM and more than 12700 nM, respectively.
For `CCCCN(CCC#N)C(=O)c1ccc(-c2cn(C)c(=O)c3[nH]c(C(=O)NCC)cc23)c(Oc2c(C)cccc2C)c1` [Example 184, 4-{4-[butyl(2-cyanoethyl)carbamoyl]-2-(2,6-dimethylphenoxy)phenyl}-N-ethyl-6-methyl-7-oxo-6,7-dihydro-1H-pyrrolo[2,3-c]pyridine-2-carboxamide], in that order: 2840 nM, 11.1 nM and 1080 nM.
As for `CCNC(=O)c1cc2c(-c3ccc(C(=O)N(CCN(C)C)c4ccccn4)cc3Oc3c(C)cccc3C)cn(C)c(=O)c2[nH]1` [Example 181, 4-[4-{[2-(dimethylamino)ethyl](pyridin-2-yl)carbamoyl}-2-(2,6-dimethylphenoxy)phenyl]-N-ethyl-6-methyl-7-oxo-6,7-dihydro-1H-pyrrolo[2,3-c]pyridine-2-carboxamide], the EC50 in test [1] turned out to be 3980 nM. The results for the Ki on BRD4 (BDII_E352-M457) and at BRD4 (BDI_K57-E168) were 9.18 nM and 1730 nM, respectively.
The matching figures for `CCNC(=O)c1cc2c(-c3ccc(C(=O)N(CCN(C)C)c4ccnc(F)c4)cc3Oc3c(C)cccc3C)cn(C)c(=O)c2[nH]1` [Example 185, 4-[4-{[2-(dimethylamino)ethyl](2-fluoropyridin-4-yl)carbamoyl}-2-(2,6-dimethylphenoxy)phenyl]-N-ethyl-6-methyl-7-oxo-6,7-dihydro-1H-pyrrolo[2,3-c]pyridine-2-carboxamide]: 2720 nM, 14.3 nM and 2940 nM.
The matching figures for `Cc1cccc(C)c1Oc1ccc(S(C)(=O)=O)cc1-c1cn(C)c(=O)c2[nH]c(C(=O)NCCCN(C)C3CCCCC3)cc12` [Example 187, N-{3-[cyclohexyl(methyl)amino]propyl}-4-[2-(2,6-dimethylphenoxy)-5-(methylsulfonyl)phenyl]-6-methyl-7-oxo-6,7-dihydro-1H-pyrrolo[2,3-c]pyridine-2-carboxamide]: 290 nM, 2.52 nM and 99.8 nM.
With `CCNC(=O)c1cc2c(-c3cc(S(=O)(=O)CC)ccc3Oc3c(C)cccc3CCC3CCCC3)cn(C)c(=O)c2[nH]1` [Example 164, 4-{2-[2-(2-cyclopentylethyl)-6-methylphenoxy]-5-(ethylsulfonyl)phenyl}-N-ethyl-6-methyl-7-oxo-6,7-dihydro-1H-pyrrolo[2,3-c]pyridine-2-carboxamide], the EC50 in test [1] was found to be 10000 nM. The Ki on BRD4 (BDII_E352-M457) was 15.1 nM.
For the compound `CCS(=O)(=O)c1ccc(Oc2ccc(F)cc2F)c(-c2cn(C)c(=O)c3[nH]c(-c4ccnn4-c4ccccc4)cc23)c1` [Example 117, 4-[2-(2,4-difluorophenoxy)-5-(ethylsulfonyl)phenyl]-6-methyl-2-(1-phenyl-1H-pyrazol-5-yl)-1,6-dihydro-7H-pyrrolo[2,3-c]pyridin-7-one], the inhibition constant Ki at BRD4 (BDII_E352-M457) turned out to be 3.39 nM; on BRD4 (BDI_K57-E168), 6.09 nM.
In the case of `CN(C)c1cccc2c(S(=O)(=O)Nc3cccc(Oc4ccc(S(C)(=O)=O)cc4-c4cn(C)c(=O)c5[nH]ccc45)c3)cccc12` [Example 45, 5-(dimethylamino)-N-{3-[2-(6-methyl-7-oxo-6,7-dihydro-1H-pyrrolo[2,3-c]pyridin-4-yl)-4-(methylsulfonyl)phenoxy]phenyl}naphthalene-1-sulfonamide], the values for the Ki at BRD4 (BDII_E352-M457) and on BRD4 (BDI_K57-E168) were 3.3 nM and 16 nM, respectively.
For `COc1ccc(S(=O)(=O)Nc2cccc(Oc3ccc(S(C)(=O)=O)cc3-c3cn(C)c(=O)c4[nH]ccc34)c2)cc1` [Example 39, 4-methoxy-N-{3-[2-(6-methyl-7-oxo-6,7-dihydro-1H-pyrrolo[2,3-c]pyridin-4-yl)-4-(methylsulfonyl)phenoxy]phenyl}benzenesulfonamide], in that order: 2.1 nM and 4.6 nM.
For `CCS(=O)(=O)Nc1cc(-c2cn(C)c(=O)c3[nH]ccc23)c(Oc2ccc(F)cc2F)cc1C(N)=O` [Example 8, 5-(2,4-difluorophenoxy)-2-[(ethylsulfonyl)amino]-4-(6-methyl-7-oxo-6,7-dihydro-1H-pyrrolo[2,3-c]pyridin-4-yl)benzamide], in that order: 1.8 nM and 1.5 nM.
The matching figures for `CCNC(=O)c1cc2c(-c3cc(S(=O)(=O)CC)ccc3Oc3c(C)cccc3Cn3ccnc3)cn(C)c(=O)c2[nH]1` [Example 150, N-ethyl-4-{5-(ethylsulfonyl)-2-[2-(1H-imidazol-1-ylmethyl)-6-methylphenoxy]phenyl}-6-methyl-7-oxo-6,7-dihydro-1H-pyrrolo[2,3-c]pyridine-2-carboxamide]: 73.9 nM and 2680 nM.
For the compound `CCNC(=O)c1cc2c(-c3cc(S(=O)(=O)CC)ccc3Oc3c(C)cccc3CN3CCOCC3)cn(C)c(=O)c2[nH]1` [Example 146, N-ethyl-4-{5-(ethylsulfonyl)-2-[2-methyl-6-(morpholin-4-ylmethyl)phenoxy]phenyl}-6-methyl-7-oxo-6,7-dihydro-1H-pyrrolo[2,3-c]pyridine-2-carboxamide], the Ki on BRD4 (BDII_E352-M457) stood at 50.1 nM; at BRD4 (BDI_K57-E168), 3280 nM.
Regarding `Cn1cc(-c2cc(S(C)(=O)=O)ccc2Oc2cccc(NCc3ccc(C#N)cc3)c2)c2cc[nH]c2c1=O` [Example 61, 4-[({3-[2-(6-methyl-7-oxo-6,7-dihydro-1H-pyrrolo[2,3-c]pyridin-4-yl)-4-(methylsulfonyl)phenoxy]phenyl}amino)methyl]benzonitrile], the Ki at BRD4 (BDII_E352-M457) amounted to 1.3 nM; at BRD4 (BDI_K57-E168), 3.7 nM.
For `Cn1cc(-c2cc(S(C)(=O)=O)ccc2Oc2cccc(NS(=O)(=O)c3ccc(F)cc3)c2)c2cc[nH]c2c1=O` [Example 41, 4-fluoro-N-{3-[2-(6-methyl-7-oxo-6,7-dihydro-1H-pyrrolo[2,3-c]pyridin-4-yl)-4-(methylsulfonyl)phenoxy]phenyl}benzenesulfonamide], in that order: 5.1 nM and 11 nM.
`Cn1cc(-c2cc(S(C)(=O)=O)ccc2Oc2cccc(NCc3ccc(F)cc3)c2)c2cc[nH]c2c1=O` [Example 62, 4-[2-{3-[(4-fluorobenzyl)amino]phenoxy}-5-(methylsulfonyl)phenyl]-6-methyl-1,6-dihydro-7H-pyrrolo[2,3-c]pyridin-7-one]: the values for the Ki on BRD4 (BDII_E352-M457) and on BRD4 (BDI_K57-E168) were 1.4 nM and 3.1 nM, respectively.
As to `Cn1cc(-c2cc(S(C)(=O)=O)ccc2Oc2cccc(C(=O)NC[C@H]3CCCO3)c2)c2cc[nH]c2c1=O` [Example 34, 3-[2-(6-methyl-7-oxo-6,7-dihydro-1H-pyrrolo[2,3-c]pyridin-4-yl)-4-(methylsulfonyl)phenoxy]-N-[(2R)-tetrahydrofuran-2-ylmethyl]benzamide], the inhibition constant Ki at BRD4 (BDII_E352-M457) turned out to be 3.6 nM; at BRD4 (BDI_K57-E168), 15 nM.
